Columns and labels:
MPM cell lines = experiment: Combination drug screen with rTRAIL as anchor drug; type: cell-based, Human; conditions: otherwise resistant cells; delta AUC synergy metric
Experimental: FIG. 7A is a volcano plot showing drug-genome interactions when rTRAIL was used as an anchor drug in combination with the library of 94 single agent compounds. Synergy was described using delta AUC metric. FIGS. 7B & 7C are graphs showing the effect of rTRAIL on cell viability of MPM cells in the presence of LCL161. TRAIL resistant MPM cells were treated with either 0-1000 ng/ml of TRAIL alone or a combination of 5 μM LCL161 and 0-1000 ng/ml of TRAIL for 24 hours and cell death was quantified by Annexin V/DAPI assay. FIG. 7D is a graph showing the effect of rTRAIL on cell viability of cells in the presence of the IAP inhibitor, LCL161. BAP1-transduced or BAP1 C91A-transduced H226 cells were treated either with 0-1000 ng/ml of TRAIL alone or combination of 5 μM LCL161 and 0-1000 ng/ml of TRAIL for 24 hours and cell death was quantified by Annexin V/DAPI assay.
Manual “single dose” combination screening was undertaken using 96 well formats. Cells were plated on day 1 in previously optimized seeding densities in 180 μl if media. On day 2 20 μl of a 10× concentration of […] was added. Cells were then allowed to grow for 72 hrs or 6 days and fixed at the end of the assay. Drug wells were compared to DMSO treated control wells.
Single agent high throughput 5 point viability screening was undertaken in 384 well formats using robotic liquid handling with fixing with 4% paraformaldehyde and staining for viability with Syto60 nucleic acid dye (Invitrogen) (see below).
A binary event matrix was compiled for the cell lines in the mesothelioma screen by aggregating copy number and exome data and this was used as input classifiers for genomic correlation. Data from this therapeutic screen was then analysed using a Multivariate Analysis of Variance (MANOVA) to annotate the sensitizing effect of genotype on dose response.

NCI-H226 = experiment: Annexin V/DAPI cell death assay, H226 parental and BAP1-transduced lines; type: cell-based, Human; conditions: 100 ng/ml, 24 hours; untransduced, BAP1-expressing and catalytically dead BAP1-expressing H226
Experimental: FIG. 5A is an immunoblot for BAP1 protein in BAP1 null mesothelioma lines following transfection with empty vector and BAP1 expression vector. […] FIG. 5C is a graph showing the effect of rTRAIL on cell viability of an untransduced H226 cell line, a BAP1 (transduced) cell line, and a H226 cell line with the NLS deleted.
Untransduced BAP1-negative H226 cells, BAP1-expressing and catalytically dead BAP1-expressing H226 cells were treated with 100 ng/ml of FASL, TRAIL and TNF-alpha for 24 hours and cell death was quantified by Annexin V/DAPI assay. *p<0.05 indicating significant difference between untransduced H226 cells H226 BAP1 expressing cells. NS no significant difference between untransduced H226 cells and BAP1 C91A transduced cells. #p<0.05 indicating significant difference between untransduced H226 cells and BAP1 C91A transduced cells.
Adherent mesothelioma cell lines were plated in a 96 well plate at approximately 10000 cells per well. Cells were plated and given 1 day to adhere at which time drug was added. After 48 hrs media, including floating cells, was collected from each well. The remaining adherent cells were washed with PBS and mobilised with 0.05% trypsin in EDTA. All cells were collected into tubes containing the previously removed media and pelleted by centrifugation (300 g, 5 minutes). Cells were then re-suspended in 1× Annexin V binding buffer with 10 μl/1 ml concentration of Annexin V-647 antibody (Invitrogen) and incubated for 15 minutes at room temperature. DAPI ([…]) was then added to each sample before flow cytometry analysis as below. Annexin V−/DAPI− cells were judged to be viable, AnnexinV+/DAPI− cells were considered to be undergoing apoptosis (early apoptotic phase), and Annexin V+/DAPI+ cells were considered late apoptotic or necrotic, and recorded as dead.

Molecule | effect on DRL-induced apoptosis in combination with rTRAIL (MPM cell lines) | sensitivity of H226 cells to cell death-inducing ligand, dependence on BAP1 catalytic domain (NCI-H226)
CN[C@@H](C)C(=O)N[C@H](C(=O)N1CCC[C@H]1c1nc(C(=O)c2ccc(F)cc2)cs1)C1CCCCC1 [LCL161] | increase the efficacy of DRL-induced apoptosis | 
TNFα |  | regulates the sensitivity
COc1ccc(C(=O)CC2(O)C(=O)Nc3c(Cl)ccc(Cl)c32)cc1 (centres unmarked) [YK-4279] | increase the efficacy of DRL-induced apoptosis | 
CNC(=O)c1cc(Oc2ccc(NC(=O)Nc3ccc(Cl)c(C(F)(F)F)c3)cc2)ccn1 [sorafenib] | increase the efficacy of DRL-induced apoptosis | 
FASL: cell death-inducing ligand, death receptor ligand (protein, UniProt P48023 130-281, looked up) Tumor necrosis factor ligand …: QIGHPSPPPEKKELRKVAHLTGKSNSRSMPLEWEDTYGIVLLSGVKYKKGGLVINETGLYFVYSKVYFRGQSCNNLPLSHKVYMRNSKYPQDLVMMEGKMMSYCTTGQMWARSSYLGAVFNLTSADHLYVNVSELSLVNFEESQTFFGLYKL |  | regulates the sensitivity

Reference: US11789012B2, “Cell death biomarker” (UCL Business PLC, priority 2016, dated 2023)
